Experimental data: US9688676B2, “Tyrosine kinase inhibitors” (PRINCIPIA BIOPHARMA INC., priority 2015, dated 2017)

Experiments:
[1] = target: T1, BTK (Homo sapiens (Human), UniProt Q06187); assay: Determination of drug-kinase residence time (TR-FRET tracer competition, occupancy after washout); assay type: binding; conditions: 1.5 μM compound, 500 nM BTK
Procedure: The experiment was conducted in a buffer consisting of 50 mM Hepes pH 7.5, 10 mM MgCl2, 0.01% Triton X-100, and 1 mM EGTA.
The mixture was then diluted 5-fold by addition of 40 μL of buffer. […] In order to probe for reversibility of the kinase-compound binding interaction, a competition solution containing both a high affinity fluorescent tracer and an antibody coupled to Europium was prepared. […] The competition solution also contained 80 nM of an Anti-polyhistidine antibody coupled to Europium (Invitrogen Cat. #PV5596) which is designed to bind the polyhistidine purification tag in BTK.
It is to be expected that covalent and slow dissociating inhibitors will block binding of the tracer while rapidly dissociating non-covalent inhibitors will not. […] Data were plotted at percentage of signal obtained in the absence of competitor compound. The background signal was obtained by omission of BTK from the reaction. […] If the compound is a reversible covalent inhibitor, the tracer will bind the target as the compound dissociates from the target.

[2] = target: T1, BTK; assay: BTK enzymatic activity assay (Caliper-based kinase assay); assay type: biochemical; conditions: human recombinant BTK 0.5 nM, ATP 16 μM, 3 h room temperature
Procedure: A Caliper-based kinase assay (Caliper Life Sciences, Hopkinton, Mass.) was used to measure inhibition of BTK kinase activity of a compound of the present disclosure. […] The reaction was then terminated with EDTA, final concentration 20 mM and the phosphorylated reaction product was quantified on a Caliper Desktop Profiler (Caliper LabChip 3000). […] This value is presented as the IC50.

T1 sequence (Q06187 whole entry): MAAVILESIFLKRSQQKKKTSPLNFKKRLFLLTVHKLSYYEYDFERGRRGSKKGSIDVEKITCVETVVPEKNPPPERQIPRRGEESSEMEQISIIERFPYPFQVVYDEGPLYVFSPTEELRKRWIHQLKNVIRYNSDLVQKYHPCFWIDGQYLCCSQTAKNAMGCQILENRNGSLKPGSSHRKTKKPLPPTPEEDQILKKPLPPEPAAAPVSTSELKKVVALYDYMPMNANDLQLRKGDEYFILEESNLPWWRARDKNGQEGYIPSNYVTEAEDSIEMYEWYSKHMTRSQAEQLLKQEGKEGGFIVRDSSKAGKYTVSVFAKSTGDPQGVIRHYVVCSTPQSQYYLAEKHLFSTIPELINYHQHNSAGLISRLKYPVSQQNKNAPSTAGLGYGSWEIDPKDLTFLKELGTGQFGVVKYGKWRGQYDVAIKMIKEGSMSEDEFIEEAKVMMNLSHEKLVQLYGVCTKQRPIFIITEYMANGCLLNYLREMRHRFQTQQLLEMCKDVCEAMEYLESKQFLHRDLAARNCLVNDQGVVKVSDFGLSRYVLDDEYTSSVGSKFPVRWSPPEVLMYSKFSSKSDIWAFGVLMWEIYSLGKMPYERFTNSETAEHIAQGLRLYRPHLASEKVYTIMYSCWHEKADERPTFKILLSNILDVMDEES

N#CC(=CC1CCC1)C(=O)N1CCC[C@@H](n2c(=O)n(-c3ccc(Oc4ccccc4)cc3)c3c(N)nccc32)C1 [Compound 8, (R)-2-(3-(4-amino-2-oxo-3-(4-phenoxyphenyl)-2,3-dihydro-1H-imidazo[4,5-c]pyridin-1-yl)piperidine-1-carbonyl)-3-cyclobutylacrylonitrile]
% occupany at 1 h ([1]; 1 h of washout): 93.335% | % occupany at 6 h ([1]; 6 h of washout): 89.195% | % occupany at 24 h ([1]; 24 h of washout): 80.873% | IC50 [2]: 0.0239 µM
